Measured values: patent US12507703B2, “Methods, devices and compositions for preserving human milk” (The Trustees of Princeton University, priority 2023, dated 2025)
Several values for one entry are separate records, joined by “and”; a condition that tells them apart may be missing. Identical values can stand only once. Where a SMILES comes first, the peptide text is derived from it.

Tested on: lipase
Assay: Lipase/lipolysis assay (EnzChek Lipase Substrate, quenched BODIPY-fatty acid conjugate) on stored human milk; as to Lipase (RFU): test concentration or dose not given here

Compound	Lipase (RFU)	Hit in lipase inhibition screen (in words)
CC(C)=CCC[C@](C)(O[C@@H]1O[C@H](CO)[C@@H](O)[C@H](O)[C@H]1O)[C@H]1CC[C@]2(C)[C@@H]1[C@H](O)C[C@@H]1[C@@]3(C)CC[C@H](O[C@@H]4O[C@H](CO)[C@@H](O)[C@H](O)[C@H]4O)C(C)(C)[C@@H]3CC[C@]12C [Ginsenoside F2]	926.1742 RFU	–
CC(C)=CCC[C@](C)(O[C@@H]1O[C@H](CO[C@@H]2OC[C@H](O)[C@H](O)[C@H]2O)[C@@H](O)[C@H](O)[C@H]1O)[C@H]1CC[C@]2(C)[C@@H]1[C@H](O)C[C@@H]1[C@@]3(C)CC[C@H](O)C(C)(C)[C@@H]3[C@@H](O)C[C@]12C [Ginsenoside F3]	878.0505 RFU	–
CC(C)=CCC[C@](C)(O[C@@H]1O[C@H](CO[C@@H]2O[C@H](CO)[C@@H](O)[C@H](O)[C@H]2O)[C@@H](O)[C@H](O)[C@H]1O)[C@H]1CC[C@]2(C)[C@@H]1[C@H](O)C[C@@H]1[C@@]3(C)CC[C@H](O[C@@H]4O[C@H](CO)[C@@H](O)[C@H](O)[C@H]4O[C@@H]4O[C@H](CO)[C@@H](O)[C@H](O)[C@H]4O)C(C)(C)[C@@H]3CC[C@]12C [Ginsenoside Rb1]	830.8489 RFU	–
CC(C)=CCC[C@](C)(O[C@@H]1O[C@H](CO[C@@H]2OC[C@H](O)[C@H](O)[C@H]2O)[C@@H](O)[C@H](O)[C@H]1O)[C@H]1CC[C@]2(C)[C@@H]1[C@H](O)C[C@@H]1[C@@]3(C)CC[C@H](O[C@@H]4O[C@H](CO)[C@@H](O)[C@H](O)[C@H]4O[C@@H]4O[C@H](CO)[C@@H](O)[C@H](O)[C@H]4O)C(C)(C)[C@@H]3CC[C@]12C [Ginsenoside Rb2]	872.7793 RFU	–
CC(C)=CCC[C@](C)(O[C@@H]1O[C@H](CO)[C@@H](O)[C@H](O)[C@H]1O)[C@H]1CC[C@]2(C)[C@@H]1[C@H](O)C[C@@H]1[C@@]3(C)CC[C@H](O)C(C)(C)[C@@H]3[C@@H](O[C@@H]3O[C@H](CO)[C@@H](O)[C@H](O)[C@H]3O)C[C@]12C [Ginsenoside Rg1]	1026.433 RFU	–
CC(C)=CCC[C@](C)(O)[C@H]1CC[C@]2(C)[C@@H]1[C@H](O)C[C@@H]1[C@@]3(C)CC[C@H](O)C(C)(C)[C@@H]3[C@@H](O[C@@H]3O[C@H](CO)[C@@H](O)[C@H](O)[C@H]3O[C@@H]3O[C@@H](C)[C@H](O)[C@@H](O)[C@H]3O)C[C@]12C [Ginsenoside Rg2]	1144.609 RFU	–
C=C(CCC=C(C)C)[C@H]1CC[C@]2(C)[C@@H]1[C@H](O)C[C@@H]1[C@@]3(C)CC[C@H](O)C(C)(C)[C@@H]3[C@@H](O[C@@H]3O[C@H](CO)[C@@H](O)[C@H](O)[C@H]3O[C@@H]3O[C@@H](C)[C@H](O)[C@@H](O)[C@H]3O)C[C@]12C [Ginsenoside Rg6]	737.5989 RFU	–
CC(C)=CCC[C@](C)(O)[C@H]1CC[C@]2(C)[C@@H]1[C@H](O)C[C@@H]1[C@@]3(C)CC[C@H](O)C(C)(C)[C@@H]3[C@@H](O[C@@H]3O[C@H](CO)[C@@H](O)[C@H](O)[C@H]3O)C[C@]12C [Ginsenoside Rh1]	665.2277 RFU	–
CC1(C)CC[C@]2(C(=O)O[C@@H]3O[C@H](CO)[C@@H](O)[C@H](O)[C@H]3O)CC[C@]3(C)C(=CC[C@@H]4[C@@]5(C)CC[C@H](O[C@@H]6O[C@H](C(=O)O)[C@@H](O)[C@H](O)[C@H]6O[C@@H]6O[C@H](CO)[C@@H](O)[C@H](O)[C@H]6O)C(C)(C)[C@@H]5CC[C@]43C)[C@@H]2C1 [Ginsenoside Ro]	1082.912 RFU	–
COc1cc2c(cc1OC)-c1c(OC)c(OC)cc3c1[C@H](C2)N(C)CC3 [Glaucine]	922.5844 RFU	–
O=C([O-])[C@H](O)[C@@H](O)[C@H](O)[C@H](O)CO.[Na+] [Gluconate (sodium)]	1019.914 RFU	–
C[S+]([O-])CCCC/C(=N\OS(=O)(=O)O)S[C@@H]1O[C@H](CO)[C@@H](O)[C@H](O)[C@H]1O (some centres unmarked) [Glucoraphanin]	983.9092 RFU	–
CCCCCCCCCCCCC/C=C/[C@@H](O)[C@@H](N)CO[C@@H]1O[C@H](CO)[C@@H](O)[C@H](O)[C@H]1O [Glucosylsphingosine]	955.6283 RFU	–
O=C(O)CCCC(=O)O [Glutaric acid]	944.8681 RFU	–
COc1cc2c(=O)c(-c3ccc(O)cc3)coc2cc1O[C@@H]1O[C@H](CO)[C@@H](O)[C@H](O)[C@H]1O [Glycitin]	799.4163 RFU	–
C[C@H](CCC(=O)NCC(=O)O)[C@H]1CC[C@H]2[C@@H]3CC[C@@H]4C[C@H](O)CC[C@]4(C)[C@H]3CC[C@]12C [Glycolithocholic acid]	1103.978 RFU	–
NCC(=O)N[C@@H](CC(=O)O)C(=O)O [Glycyl-L-Aspartic] (H-Gly-Asp-OH)	903.5873 RFU	–
NCC(=O)N[C@@H](CCC(=O)O)C(=O)O [Glycyl-L-Glutamic Acid] (H-Gly-Glu-OH)	846.2286 RFU	–
NCC(=O)N1CCC[C@H]1C(=O)O [Glycyl-L-Proline] (H-Gly-Pro-OH)	318.8964 RFU	significantly inhibited lipase activity
CC(C)C[C@H](NC(=O)CN)C(=O)O [Glycyl-L-leucine]	829.1827 RFU	–
COc1cc([C@H]2c3cc(O)c(OC)cc3C[C@@H](C)[C@@H]2C)ccc1O [Guaiacin]	808.3575 RFU	–
C[C@H]1CC[C@@H](C(C)(C)O)CC2=C1CC[C@@H]2C [Guaiol]	919.8918 RFU	–
Nc1nc2nc[nH]c2c(=O)[nH]1 [Guanine]	909.1174 RFU	–
Nc1nc2c(ncn2[C@@H]2O[C@@H]3COP(=O)(O)O[C@H]3[C@H]2O)c(=O)[nH]1 [Guanosine-3′,5′-cyclic monophosphate]	813.7484 RFU and 1141.322 RFU	–
CC[C@H](N)C(=O)O [H-Abu-OH]	993.6587 RFU	–
NCC(=O)N1CCC[C@H]1C(=O)O [H-Gly-Pro-OH] (H-Gly-Pro-OH)	952.5324 RFU	–
NC(N)=NCCCC[C@H](N)C(=O)O [H-HoArg-OH]	745.4822 RFU	–
N[C@@H](Cc1ccc(O)c(I)c1)C(=O)O [H-Tyr(3-I)-OH]	847.3153 RFU	–

Compound	Lipase (RFU)	Hit in lipase inhibition screen (in words)
COC(=O)C1=CO[C@@H](O[C@@H]2O[C@H](CO)[C@@H](O)[C@H](O)[C@H]2O)[C@@H]2[C@@H](C)CC(=O)[C@]12O [Hastatoside]	738.976 RFU	–
C[C@@H]1O[C@@H](O[C@H]2[C@H](O[C@H]3CC[C@]4(C)[C@H]5CC=C6[C@@H]7CC(C)(C)CC[C@]7(C(=O)O[C@@H]7O[C@H](CO[C@@H]8O[C@H](CO)[C@@H](O[C@@H]9O[C@@H](C)[C@H](O)[C@@H](O)[C@H]9O)[C@H](O)[C@H]8O)[C@@H](O)[C@H](O)[C@H]7O)CC[C@@]6(C)[C@]5(C)CC[C@H]4C3(C)C)OC[C@H](O)[C@@H]2O)[C@H](O)[C@H](O)[C@H]1O [Hederasaponin B]	619.4985 RFU	–
COc1ccc([C@@H]2CC(=O)c3c(O)cc(O[C@@H]4O[C@H](CO[C@@H]5O[C@@H](C)[C@H](O)[C@@H](O)[C@H]5O)[C@@H](O)[C@H](O)[C@H]4O)cc3O2)cc1O [Hesperidin]	595.5734 RFU and 766.088 RFU	–
COc1c(O)cc2oc(-c3ccc(O)cc3)cc(=O)c2c1O [Hispidulin]	914.8964 RFU	–
Cl.Cl.NCCc1c[nH]cn1 [Histamine (dihydrochloride)]	1022.007 RFU	–
COc1cc(CC(=O)O)ccc1O [Homovanillic acid]	934.4466 RFU	–
CN(C)CCc1ccc(O)cc1 [Hordenine]	1057.467 RFU	–
C/C=C/C=C/C=C\CC/C=C/C(=O)NCC(C)(C)O [Hydroxy-α-sanshool]	984.0163 RFU	–
COc1cc(O)c2c(=O)cc(-c3ccc(O)c(O)c3)oc2c1 [Hydroxygenkwanin]	874.9866 RFU	–
O=C(O)C(O)Cc1ccc(O)cc1 (centres unmarked) [Hydroxyphenyllactic acid]	914.2115 RFU	–
NCCS(=O)O [Hypotaurine]	1147.047 RFU and 798.4494 RFU	–
Cl.O=C(O)Cc1cnc[nH]1 [Imidazoleacetic acid (hydrochloride)]	807.4109 RFU	–
O=C1/C(=C2\Nc3ccc(S(=O)(=O)[O-])cc3C2=O)Nc2ccc(S(=O)(=O)[O-])cc21.[Na+].[Na+] [Indigo carmine]	862.5624 RFU	–
OCc1c[nH]c2ccccc12 [Indole-3-carbinol]	1082.489 RFU	–
O=C(O)C(O)Cc1c[nH]c2ccccc12 (centres unmarked) [Indolelactic acid]	641.0066 RFU	–
C[C@H](CCC(=O)O)[C@H]1CC[C@H]2[C@@H]3CC[C@H]4C[C@@H](O)CC[C@]4(C)[C@H]3CC[C@]12C [Isoallolithocholic acid]	881.405 RFU	–
CC(C)C(=O)O[C@H](CC(=O)O)C[N+](C)(C)C.[Cl-] [Isobutyryl-L-carnitine (chloride)]	1069.653 RFU	–
O=C(/C=C/c1ccc(O)c(O)c1)O[C@@H]1CC(O)(C(=O)O)C[C@@H](OC(=O)/C=C/c2ccc(O)c(O)c2)C1O (some centres unmarked) [Isochlorogenic acid A]	827.6093 RFU	–
COc1ccc2c(=O)c(-c3ccc(O)cc3)coc2c1 [Isoformononetin]	1355.098 RFU	–
COc1cc2ccc(=O)oc2c(OC)c1O [Isofraxidin]	929.2612 RFU	–
COc1ccc(CC(=O)O)cc1O [Isohomovanillic acid]	1060.172 RFU	–
OC[C@H]1O[C@H](OC[C@H]2OC(O)[C@H](O)[C@@H](O)[C@@H]2O)[C@H](O)[C@@H](O)[C@@H]1O (some centres unmarked) [Isomaltose]	1074.051 RFU	–
COc1ccc([C@@H]2CC(=O)c3c(O)cc(O[C@@H]4O[C@H](CO)[C@@H](O)[C@H](O)[C@H]4O)cc3O2)cc1 [Isosakuranin]	864.5248 RFU	–
O=c1cc(-c2ccc(O)cc2)oc2c([C@@H]3O[C@H](CO)[C@@H](O)[C@H](O)[C@H]3O)c(O)c([C@@H]3OC[C@H](O)[C@H](O)[C@H]3O)c(O)c12 [Isoschaftoside]	949.6414 RFU	–
COc1cc(C2Oc3ccc([C@H]4Oc5cc(O)cc(O)c5C(=O)[C@@H]4O)cc3OC2CO)ccc1O (some centres unmarked) [Isosilybin]	921.7702 RFU	–
CC(C)CC(=O)O[C@H](CC(=O)[O-])C[N+](C)(C)C [Isovalerylcarnitine]	737.2804 RFU	–
O=c1cc(-c2ccc(O)cc2)oc2cc(O)c([C@@H]3O[C@H](CO)[C@@H](O)[C@H](O)[C@H]3O[C@@H]3OC[C@H](O)[C@H](O)[C@H]3O)c(O)c12 [Isovitexin 2″-O-arabinoside]	1033.269 RFU	–
